Data: PMC10487310, “Enzyme‐responsive macrocyclic metal complexes for biomedical imaging” (Bioengineering & Translational Medicine, 2022)
Read-outs that look alike come from different tables or passages of the source. Ends that are not written are not given here.

How the values were obtained:
3T3‐L1 cells [1] = test: MTT cell viability; format: cell-based; conditions: 3T3 cells, 24 h treatment
Method: The viability of cells treated with macrocyclam derivatives was assessed by MTT and apoptosis detection assays, and by live/dead cell staining. The 3T3‐L1 cells were seeded onto 24‐well plates at a density of 1 × 10^5 cells per well for 24 h and the cells were treated with macrocyclam derivatives for 24 h. MTT (3‐(4,5‐dimethylthiazol‐2‐yl)‐2,5‐diphenyltetrazolium bromide) solution (final concentration, 500 μM) was added to each well and the cells incubated for 2 h. After aspiration of medium, the cells were dissolved in 200 μl dimethyl sulfoxide (DMSO; Sigma‐Aldrich). Formazan crystals generated by metabolically active cells were quantified by measuring optical density at 570 nm using a microplate reader (Tecan Group Ltd., Seestrasse, Mannedorf, Switzerland). Cell viability was analyzed by calculating the percent optical density of treated cells relative to control cells. Live and dead cell populations were determined using EZ‐view Live/Dead Cell Staining Kits (Biomax, Seoul, Republic of Korea). […] The absorbance of each well was measured at 490/545 nm using fluorescence microscopy (IX70; Olympus, Japan). Cell apoptosis was analyzed using a FACSCalibur flow cytometer (BD Biosciences, CA, USA) with annexin V staining. […] Cell surface expression was analyzed using a FACSCalibur flow cytometer (BD Biosciences), with the results analyzed using FlowJo software (BD Biosciences).

SCC7 tumor [2] = format: in vivo, mice; conditions: for tumor/normal tissue (TN) ratio: Gd 0.7 mg/kg, T1-weighted signal intensity
Method: (§1) Five‐week‐old Balb/c or athymic nude mice (Raon Bio, Yongin, Republic of Korea) were used for in vivo experiments. All studies using animals conformed to the Guidelines for the Care and Use of Laboratory Animals of the Institute of Laboratory Animal Resources at Seoul National University (approved animal experimental protocol number, SNU‐190821‐5).
(§2) The biodistribution of macrocyclam derivatives was determined by MRI and positron emission tomography/computed tomography (PET/CT) scanning. Five‐week‐old female Balb/c nude mice were subcutaneously inoculated with 1 × 10^6 SCC7 cells on the dorsal left side. When tumor volumes reached 150 mm^3, samples were intravenously administered. For in vivo MRI, Gd@NrMC or Gd@ErMC was injected at a Gd dose of 0.7 mg/kg. The mice were monitored in vivo at different time points using an MRI scanner (Bruker‐Biospin) equipped with an animal‐imaging coil. For PET/CT imaging, ^64Cu@NrMC or ^64Cu@ErMC was injected at a ^64Cu dose of approximately 240 μCi/mouse, and the mice were monitored in vivo at different time point using a PET/CT scanner (Inveon microPET/CT scanner, Siemens Medical Solutions, Malvern, PA, USA).

SCC7 cells [3] = test: Cellular uptake of Gd by ICP-MS; format: cell-based, murine; conditions: Gd 100 μM, 24 h
Method: (§3) Cellular uptake was assessed by in vitro MR imaging, ICP‐MS, and scanning electron microscopy combined with energy‐dispersive x‐ray spectroscopy (SEM/EDS) analysis. For in vitro MR imaging, murine squamous cell carcinoma SCC7 cells were seeded onto six‐well plates at a density of 3 × 10^5 cells per well. After 24 h, the cells were treated with Gadovist or macrocyclam derivatives at Gd concentrations of 100 μM for 24 h. MR images were obtained and analyzed using an MRI scanner (Bruker‐Biospin). To assess enzyme‐dependent cellular uptake, 3T3‐L1 cells were pretreated with various concentrations of MMP‐9 (Sigma‐Aldrich). For ICP‐MS analysis, the cells were washed and completely dissolved with 90% nitric acid (Sigma‐Aldrich). To quantify Gd taken up by cells, the dissolved cells were digested with 1 ml of aqua regia (HCl: HNO3 = 3: 1, m/m) at 130°C. The solutions were completely dried and redissolved in deionized water, and the amounts of Gd were measured by ICP‐MS (Varian 820‐MS). For SEM/EDS analysis, SCC7 cells were seeded in cover glass‐inserted 24‐well plates at a density of 2 × 10^5 cells per well, followed by treatment of the samples for 24 h. A field‐emission SEM system (Supra 55VP; Carl Zeiss, Oberkochen, Germany) was used for SEM imaging combined with EDS mapping.

T1 relaxivity, 7 T MRI = format: physicochemical; conditions: 37°C, Gd 37, 75, 150 and 300 μM
Method: (§4) The size, zeta potential, and morphology of each macrocyclam derivative were determined. Size was measured using dynamic light scattering, and zeta potential was assessed by laser Doppler microelectrophoresis at an angle of 22°, with both size and zeta potential being measured using an ELS8000 instrument (Photal, Osaka, Japan). The relaxation times of Gd‐loaded materials were examined using a 7 T/20 MRI instrument (Bruker‐Biospin, Ettlingen, Germany) at 37°C. Each sample was serially diluted to Gd concentrations of 37, 75, 150, and 300 μM, and the T1‐weighted MR signal intensities of 200‐μl samples were determined. The relaxation rate, r1 (r1 = 1/T1), for each preparation was calculated from acquired images.

[4] = In vivo safety, serum biochemistry (ALT, AST, ALP, BUN, TBIL); conditions: Balb/c mice, Gd 3.5 mg/kg, 1 week after injection, compared with untreated mice
Method: (§5) The in vivo safety of macrocyclam derivatives was determined by histological and serological analyses. Five‐week‐old Balb/c mice were intravenously administered with at Gd@NrMC or Gd@ErMC at a Gd dose of 3.5 mg/kg. Briefly, NrMC (470 nmol) or ErMC (650 nmol) was mixed with gadolinium chloride in sodium acetate buffer (pH 5.0) and incubated for 2 h at 80°C. Unloaded Gd was removed using a PD‐SpinTrap™ G‐25 column. The samples including 70 μg of Gd were intravenously administered to mice. After 1 week, animals (n = 4 per group) were euthanized, and their organs (heart, lung, liver, spleen, and kidney) and sera were collected for histopathological and biochemical evaluation. Extracted organs were fixed in 10% formalin solution for 24 h and embedded in paraffin. For hematoxylin and eosin staining, each organ section was immersed in filtered Harris hematoxylin for 10 s and then in eosin for 30 s. The stained slides were visualized using a Vectra 3.0 Automated Quantitative Pathology Imaging System (PerkinElmer, Hopkinton, MA, USA), and the images were analyzed using InForm v2.4.11. software (PerkinElmer). The serum concentrations of alanine aminotransferase (ALT), aspartate aminotransferase (AST), […] (ALP), blood urea nitrogen (BUN), and total bilirubin (TBIL) were measured using an automatic chemistry analyzer (DRI‐CEHM 3500s; Fujifilm, Kanagawa, Japan).

3T3‐L1 cells [5] = test: Enzyme-dependent cellular uptake of Gd by ICP-MS, MMP-spiked versus blank media; format: cell-based; conditions: 3T3-L1 cells pretreated with MMP-9, ICP-MS
Method: as §3

[6] = Gd loading of macrocyclam derivatives by ICP-MS; format: physicochemical; conditions: gadolinium chloride in sodium acetate buffer pH 5.0, 2 h at 80°C, unloaded Gd removed on G-25 column
Method: (§6) Metal ions are complexed with macrocyclam derivatives in acidic condition (Figure 2c). The lyophilized macrocyclam derivatives were dissolved in distilled water. A 100 nmol aliquot of NrMC or ErMC was mixed with gadolinium chloride (Sigma‐Aldrich) or radioactive copper‐64 chloride in sodium acetate buffer (pH 5.0) and incubated for 2 h at 80°C. Unloaded Gd was removed using a PD‐SpinTrap™ G‐25 column (GE Healthcare, Little Chalfont, UK). The loading amount of Gd in each sample was measured by inductively coupled plasma mass spectrometry (ICP‐MS, Varian 820‐MS; Varian, Palo Alto, CA, USA). Gd chelation consists of a reaction between the Gd^3+ and arsenazo III dye under acidic conditions to form a blue–purple complex. Radioactivity was measured using a dose calibrator (Biodex Medical Systems, Shirley, NY, USA).

[7] = Hydrodynamic size by dynamic light scattering; format: physicochemical
Method: as §4

[8] = Size stability of nanostructure in TDW, PBS or 10% serum; format: physicochemical; conditions: size measured in TDW, PBS or 10% serum (Figure S1)
Method: Fig. S1. Serum stability of macrocyclic complex
Size of ErMC was measured in TDW, PBS, or 10% serum condition.

SCC7 cells [9] = test: SEM/EDS elemental mapping of treated cells; format: cell-based, murine; conditions: 24 h
Method: as §3

[10] = In vivo safety, H&E histology of major organs; conditions: Balb/c mice, intravenous, Gd 3.5 mg/kg, 1 week, n = 4 per group
Method: as §5

SCC7 cells [11] = test: Cellular uptake, in vitro T1 MR imaging; format: cell-based, murine; conditions: Gd 100 μM, 24 h
Method: as §3

[12] = Zeta potential by laser Doppler microelectrophoresis; format: physicochemical
Method: as §4

SCC7 tumor [13] = test: In vivo PET/CT imaging of tumor-bearing mice
Method: as §1, §2

[14] = Copper-64 chloride loading, radioactivity by dose calibrator; format: physicochemical; conditions: sodium acetate buffer pH 5.0, 2 h at 80°C
Method: as §6

## O=C([O-])CN1CCN(CC(=O)[O-])CCN([C@H](CO)[C@H](O)CO)CCN(CC(=O)[O-])CC1.[Gd+3] (racemic) [Gadovist, reference compound]
3T3‐L1 cells [1]
  viability of cells (MTT): no effect
SCC7 tumor [2]; 1 h to 24 h after intravenous injection
  change of tumor/normal tissue (TN) ratio over time: not enhanced over time

## GGPLGVRGGGGG-OH [Gd@ErMC, Gd loaded into enzyme-responsive macrocyclam modified with a PEGylated MMP-cleavable peptide; self-assembled nanoparticles]
SCC7 cells [3]
  intracellular Gd concentration relative to Gd@NrMC-treated cells: 32.2 fold
T1 relaxivity, 7 T MRI
  longevity relaxivity (r1): 33.4 mM⁻¹ s⁻¹
[4]
  liver and kidney function enzyme levels in blood: within normal range
3T3‐L1 cells [5]
  Gd accumulation in cells treated with MMP relative to blank media: 7.2 fold
[6]
  gadolinium loading capacity: 29.3 ± 14.5 mol%
[7]
  hydrodynamic size: 310.2 ± 50.2 nm
[8]
  nanostructure in physiological conditions: maintained
SCC7 cells [9]
  colocalization of Gd on the cell surface (EDS-SEM): bound to cell membranes
[10]
  histology of heart, lungs, liver, spleen and kidneys: no visible microscopically abnormal features
SCC7 tumor [2]; 1 h after intravenous injection
  tumor/normal tissue (TN) ratio: 1.8
SCC7 tumor [2]; 24 h after intravenous injection
  tumor/normal tissue (TN) ratio: 3.4
SCC7 cells [11]
  T1 MRI signal of MMP-overexpressing cells: higher for the Gd@ErMC group than for other groups
[12]
  zeta potential: slightly positive

## GGPLGVRGGGGG-OH [^64Cu@ErMC]
SCC7 tumor [13]; 24 h post-dose
  percentage of injected 64Cu in tumors relative to 64Cu@NrMC-treated mice: 2.9 fold
SCC7 tumor [13]; 48 h post-dose
  percentage of injected 64Cu in tumors relative to 64Cu@NrMC-treated mice: 2 fold
SCC7 tumor [13]; intravenous, approximately 240 μCi/mouse, SCC7 tumor-bearing mice
  PET signal in tumor tissue: enhanced signals
[14]
  copper-64 chloride loading capacity: 22.4%
